Laboratory results taken from article PMC10447463, “Data-mining unveils structure–property–activity correlation of viral infectivity enhancing self-assembling peptides” (Nature Communications, 2023).
Where two headings read alike, the source gives them in different places.

Type: physicochemical
Conditions: for ThT Cat. / ThT-Fluorescence (categorical): ThT-active if fluorescence at least twice the control
Summary of the method: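 Fibrils (1 mg/mL solution) were mixed with 50 µM ThT in PBS for 15 min at RT, and fluorescence was read at λex 440/λem 488 nm against a PBS blank, as a triplicate mean ± SD. Zeta potential came from electrophoretic mobility (Smoluchowski) after 1 d aggregation at 1 mg/mL in PBS pH 7.4, diluted into 1 mM KCl.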

[1] = ThT fluorescence category, 1 if Rel. ThT >2

KIKIQINAWQ
1 (ThT. Cat is 1, if Rel. ThT >2): Tht category (> 2 to blank = +) (Fig S10 panel D) | ThT Cat, (ThT category, 1 if Rel. ThT >2) | ThT Cat. [1] | ThT Cat. / ThT-Fluorescence (categorical)

KAKQAANMWQ
0 (ThT-inactive (N-Fold <2)): Tht category (> 2 to blank = +) (Fig S10 panel D) | Tht category (> 2 to blank = +) (FigS12 panel A) | ThT Cat, (FigS12 panel B) | ThT Cat, (ThT category, 1 if Rel. ThT >2) | ThT Cat. (ThT category, 1 if Rel. ThT >2) | ThT Cat. / ThT-Fluorescence (categorical)

KIKIQINMW
1 (ThT. Cat is 1, if Rel. ThT >2): Tht category (> 2 to blank = +) (Fig S10 panel D) | ThT Cat, (ThT category, 1 if Rel. ThT >2) | ThT Cat. [1] | ThT Cat. / ThT-Fluorescence (categorical)

KKFQKKFQ
0 (ThT-inactive (N-Fold <2)): Tht category (> 2 to blank = +) (Fig S10 panel D) | Tht category (> 2 to blank = +) (FigS12 panel A) | ThT Cat, (FigS12 panel B) | ThT Cat, (ThT category, 1 if Rel. ThT >2) | ThT Cat. (ThT category, 1 if Rel. ThT >2) | ThT Cat. / ThT-Fluorescence (categorical)

KVKVKVQV
1 (ThT. Cat is 1, if Rel. ThT >2): Tht category (> 2 to blank = +) (Fig S10 panel D) | Tht category (> 2 to blank = +) (FigS12 panel A) | ThT Cat, (FigS12 panel B) | ThT Cat, (ThT category, 1 if Rel. ThT >2) | ThT Cat. (ThT category, 1 if Rel. ThT >2) | ThT Cat. / ThT-Fluorescence (categorical)

NMWQKFKFQF
0 (ThT-inactive (N-Fold <2)): Tht category (> 2 to blank = +) (Fig S10 panel D) | ThT Cat, (ThT category, 1 if Rel. ThT >2) | ThT Cat. (ThT category, 1 if Rel. ThT >2) | ThT Cat. / ThT-Fluorescence (categorical)

KNDKND
0 (ThT-inactive (N-Fold <2)): Tht category (> 2 to blank = +) (Fig S10 panel D) | Tht category (> 2 to blank = +) (FigS12 panel A) | ThT Cat, (FigS12 panel B) | ThT Cat, (ThT category, 1 if Rel. ThT >2) | ThT Cat. (ThT category, 1 if Rel. ThT >2) | ThT Cat. / ThT-Fluorescence (categorical)

QCKIKIQI
1 (ThT. Cat is 1, if Rel. ThT >2): Tht category (> 2 to blank = +) (Fig S10 panel D) | ThT Cat, (ThT category, 1 if Rel. ThT >2) | ThT Cat. (ThT category, 1 if Rel. ThT >2) | ThT Cat. / ThT-Fluorescence (categorical)

TKTLTKTL
0 (ThT-inactive (N-Fold <2)): Tht category (> 2 to blank = +) (Fig S10 panel D) | Tht category (> 2 to blank = +) (FigS12 panel A) | ThT Cat, (FigS12 panel B) | ThT Cat, (ThT category, 1 if Rel. ThT >2) | ThT Cat. (ThT category, 1 if Rel. ThT >2) | ThT Cat. / ThT-Fluorescence (categorical)

HHHHEIEIEIEI
1 (ThT. Cat is 1, if Rel. ThT >2): Tht category (> 2 to blank = +) (Fig S10 panel D) | Tht category (> 2 to blank = +) (FigS12 panel A) | ThT Cat, (FigS12 panel B) | ThT Cat, (ThT category, 1 if Rel. ThT >2) | ThT Cat. [1] | ThT Cat. / ThT-Fluorescence (categorical)

HGEHGE
0 (ThT-inactive (N-Fold <2)): Tht category (> 2 to blank = +) (Fig S10 panel D) | Tht category (> 2 to blank = +) (FigS12 panel A) | ThT Cat, (FigS12 panel B) | ThT Cat, (ThT category, 1 if Rel. ThT >2) | ThT Cat. (ThT category, 1 if Rel. ThT >2) | ThT Cat. / ThT-Fluorescence (categorical)

NMWQKIKIQI
1 (ThT. Cat is 1, if Rel. ThT >2): Tht category (> 2 to blank = +) (Fig S10 panel D) | ThT Cat, (ThT category, 1 if Rel. ThT >2) | ThT Cat. [1] | ThT Cat. / ThT-Fluorescence (categorical)

EIEIEIEI
0 (ThT-inactive (N-Fold <2)): Tht category (> 2 to blank = +) (Fig S10 panel D) | Tht category (> 2 to blank = +) (FigS12 panel A) | ThT Cat, (FigS12 panel B) | ThT Cat, (ThT category, 1 if Rel. ThT >2) | ThT Cat. [1] | ThT Cat. / ThT-Fluorescence (categorical)

CKYKYQY
1 (ThT. Cat is 1, if Rel. ThT >2): Tht category (> 2 to blank = +) (Fig S10 panel D) | Tht category (> 2 to blank = +) (FigS12 panel A) | ThT Cat, (FigS12 panel B) | ThT Cat, (ThT category, 1 if Rel. ThT >2) | ThT Cat. [1] | ThT Cat. / ThT-Fluorescence (categorical)

KIKIQIAMWQ
1 (ThT. Cat is 1, if Rel. ThT >2): Tht category (> 2 to blank = +) (Fig S10 panel D) | ThT Cat, (ThT category, 1 if Rel. ThT >2) | ThT Cat. [1] | ThT Cat. / ThT-Fluorescence (categorical)

FDPFDPFDP
0 (ThT-inactive (N-Fold <2)): Tht category (> 2 to blank = +) (Fig S10 panel D) | Tht category (> 2 to blank = +) (FigS12 panel A) | ThT Cat, (FigS12 panel B) | ThT Cat, (ThT category, 1 if Rel. ThT >2) | ThT Cat. (ThT category, 1 if Rel. ThT >2) | ThT Cat. / ThT-Fluorescence (categorical)
